25 compounds from paper PMC9868654, “Discovery of a potent olaparib–chlorambucil hybrid inhibitor of PARP1 for the treatment of cancer” (Frontiers in Pharmacology, 2023) can be followed below.

SMILES strings stand for the structures.

The target of this assay is PARP1 (Homo sapiens, UniProt P09874). The assay can be described thus: PARP1 enzyme inhibitory assay. The following applies: mean of three experiments. It is filed as biochemical.
PARP1, sequence (P09874 whole entry): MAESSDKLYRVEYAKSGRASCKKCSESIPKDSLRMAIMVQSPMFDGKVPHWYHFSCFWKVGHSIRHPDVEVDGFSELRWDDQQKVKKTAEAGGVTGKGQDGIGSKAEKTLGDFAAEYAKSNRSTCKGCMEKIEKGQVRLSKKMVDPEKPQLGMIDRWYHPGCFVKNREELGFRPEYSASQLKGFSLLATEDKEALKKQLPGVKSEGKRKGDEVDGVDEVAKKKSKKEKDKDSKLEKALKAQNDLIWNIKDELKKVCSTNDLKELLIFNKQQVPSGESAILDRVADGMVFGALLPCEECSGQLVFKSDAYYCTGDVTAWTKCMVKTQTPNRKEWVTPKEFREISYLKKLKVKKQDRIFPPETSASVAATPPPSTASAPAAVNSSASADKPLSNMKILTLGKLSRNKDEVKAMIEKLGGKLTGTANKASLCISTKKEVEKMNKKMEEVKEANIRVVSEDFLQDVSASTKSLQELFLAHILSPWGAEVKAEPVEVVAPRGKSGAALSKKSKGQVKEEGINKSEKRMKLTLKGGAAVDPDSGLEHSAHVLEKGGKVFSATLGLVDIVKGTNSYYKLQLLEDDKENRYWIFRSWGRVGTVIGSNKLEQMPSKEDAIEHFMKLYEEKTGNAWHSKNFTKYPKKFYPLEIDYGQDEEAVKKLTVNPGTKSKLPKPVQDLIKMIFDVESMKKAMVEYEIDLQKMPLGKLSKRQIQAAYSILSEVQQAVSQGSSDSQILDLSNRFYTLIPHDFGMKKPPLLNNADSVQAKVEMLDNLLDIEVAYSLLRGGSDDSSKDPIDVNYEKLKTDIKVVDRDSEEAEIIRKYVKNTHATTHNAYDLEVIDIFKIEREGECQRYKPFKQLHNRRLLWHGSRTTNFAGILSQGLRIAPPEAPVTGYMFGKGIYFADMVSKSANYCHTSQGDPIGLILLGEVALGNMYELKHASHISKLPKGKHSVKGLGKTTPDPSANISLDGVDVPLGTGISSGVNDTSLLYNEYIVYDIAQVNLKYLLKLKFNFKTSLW

Consider `O=C(c1ccc(F)cc1)N1CCN(Cc2cc(Cc3n[nH]c(=O)c4ccccc34)ccc2F)CC1` [A1, 4-(4-Fluoro-3-((4-(4-fluorobenzoyl)piperazin-1-yl)methyl)benzyl)phthalazin-1(2H)-one], for which it took 31.2 ± 2.4 nM to reach half-maximal inhibition (Table 1, A series) (IC50). The same measure, in the same setting: the same measure for `O=C(c1ccccc1F)N1CCN(Cc2cc(Cc3n[nH]c(=O)c4ccccc34)ccc2F)CC1` [A2, 4-(4-Fluoro-3-((4-(2-fluorobenzoyl)piperazin-1-yl)methyl)benzyl)phthalazin-1(2H)-one]: 29.4 ± 2.2 nM; for `O=C(c1cccc(F)c1)N1CCN(Cc2cc(Cc3n[nH]c(=O)c4ccccc34)ccc2F)CC1` [A3, 4-(4-Fluoro-3-((4-(3-fluorobenzoyl)piperazin-1-yl)methyl)benzyl)phthalazin-1(2H)-one]: 17.6 ± 1.3 nM; for `O=C(c1ccc(C(F)(F)F)cc1)N1CCN(Cc2cc(Cc3n[nH]c(=O)c4ccccc34)ccc2F)CC1` [A4, 4-(4-Fluoro-3-((4-(4-(trifluoromethyl)benzoyl)piperazin-1-yl)methyl)benzyl)phthalazin-1(2H)-one]: 42.2 ± 4.1 nM. As to `O=C(c1ccccc1C(F)(F)F)N1CCN(Cc2cc(Cc3n[nH]c(=O)c4ccccc34)ccc2F)CC1` [A5, 4-(4-Fluoro-3-((4-(2-(trifluoromethyl)benzoyl)piperazin-1-yl)methyl)benzyl)phthalazin-1(2H)-one], where the note is “Table 1, A series”, half-maximal inhibition (IC50) was put at 33.2 ± 3.1 nM. For the compound `O=C(c1cccc(C(F)(F)F)c1)N1CCN(Cc2cc(Cc3n[nH]c(=O)c4ccccc34)ccc2F)CC1` [A6, 4-(4-Fluoro-3-((4-(3-(trifluoromethyl)benzoyl)piperazin-1-yl)methyl)benzyl)phthalazin-1(2H)-one], the IC50 (commonly the concentration at which inhibition is half-maximal) (Table 1, A series) was greater than 50 nM. For the setting “Table 1, A series”, `O=C(c1ccccc1Cl)N1CCN(Cc2cc(Cc3n[nH]c(=O)c4ccccc34)ccc2F)CC1` [A7, 4-(3-((4-(2-Chlorobenzoyl)piperazin-1-yl)methyl)-4-fluorobenzyl)phthalazin-1(2H)-one] came in with an IC50 of 24.6 ± 2.1 nM. Consider `O=C(c1cccc(Br)c1)N1CCN(Cc2cc(Cc3n[nH]c(=O)c4ccccc34)ccc2F)CC1` [A8, 4-(3-((4-(3-Bromobenzoyl)piperazin-1-yl)methyl)-4-fluorobenzyl)phthalazin-1(2H)-one], for which the IC50 (Table 1, A series) turned out to be 22.5 ± 2.1 nM.

In the case of `Cc1ccccc1C(=O)N1CCN(Cc2cc(Cc3n[nH]c(=O)c4ccccc34)ccc2F)CC1` [A9, 4-(4-Fluoro-3-((4-(2-methylbenzoyl)piperazin-1-yl)methyl)benzyl)phthalazin-1(2H)-one], under “Table 1, A series”, 12.6 ± 1.1 nM corresponded to half-maximal inhibition (IC50). As to `CCc1ccc(C(=O)N2CCN(Cc3cc(Cc4n[nH]c(=O)c5ccccc45)ccc3F)CC2)cc1` [A10, 4-(3-((4-(4-Ethylbenzoyl)piperazin-1-yl)methyl)-4-fluorobenzyl)phthalazin-1(2H)-one], the IC50 (Table 1, A series) amounted to 21.4 ± 1.4 nM. For `COc1ccccc1C(=O)N1CCN(Cc2cc(Cc3n[nH]c(=O)c4ccccc34)ccc2F)CC1` [A11, 4-(4-Fluoro-3-((4-(2-methoxybenzoyl)piperazin-1-yl)methyl)benzyl)phthalazin-1(2H)-one], inhibition (Table 1, A series) was half-maximal at 29.4 ± 2.3 nM (IC50).

Consider `O=C(c1ccccc1)N1CCN(Cc2cc(Cc3n[nH]c(=O)c4ccccc34)ccc2F)CC1` [A12, 4-(3-((4-Benzoylpiperazin-1-yl)methyl)-4-fluorobenzyl)phthalazin-1(2H)-one], for which the IC50 (Table 1, A series) was greater than 50 nM. The compound `COc1ccc(C(=O)N2CCN(Cc3cc(Cc4n[nH]c(=O)c5ccccc45)ccc3F)CC2)cc1` [A13, 4-(4-Fluoro-3-((4-(4-methoxybenzoyl)piperazin-1-yl)methyl)benzyl)phthalazin-1(2H)-one] gave an IC50 (Table 1, A series) greater than 50 nM. Still for that read-out and setting: the value for `NC(=O)C1CCN(Cc2cc(Cc3n[nH]c(=O)c4ccccc34)ccc2F)CC1` [A14, 1-(2-Fluoro-5-((4-oxo-3,4-dihydrophthalazin-1-yl)methyl)benzyl)piperidine-4-carboxamide] was greater than 50 nM; that for `O=c1[nH]nc(Cc2ccc(F)c(CN3CCN(Cc4ccc5c(c4)OCO5)CC3)c2)c2ccccc12` [A15, 4-(3-((4-(Benzo[d][1,3]dioxol-5-ylmethyl)piperazin-1-yl)methyl)-4-fluorobenzyl)phthalazin-1(2H)-one] was greater than 50 nM. `O=c1[nH]nc(Cc2ccc(F)c(CN3CCC(N4CCCCC4)CC3)c2)c2ccccc12` [A16, 4-(3-([1,4′-Bipiperidin]-1′-ylmethyl)-4-fluorobenzyl)phthalazin-1(2H)-one] displayed an IC50 (Table 1, A series) greater than 50 nM.

With `COC(=O)C1CCN(Cc2cc(Cc3n[nH]c(=O)c4ccccc34)ccc2F)CC1` [A17, Methyl1-(2-fluoro-5-((4-oxo-3,4-dihydrophthalazin-1-yl)methyl)benzyl)piperidine-4-carboxylate], the IC50 (Table 1, A series) was greater than 50 nM. On the same count and under the same terms, the same measure for `O=c1[nH]nc(Cc2ccc(F)c(CN3CCC(Cc4ccccc4)CC3)c2)c2ccccc12` [A18, 4-(3-((4-Benzylpiperidin-1-yl)methyl)-4-fluorobenzyl)phthalazin-1(2H)-one]: greater than 50 nM; for `O=C(c1ccc2c(c1)OCO2)N1CCN(Cc2cc(Cc3n[nH]c(=O)c4ccccc34)ccc2F)CC1` [A20, 4-(3-((4-(Benzo[d][1,3]dioxole-5-carbonyl)piperazin-1-yl)methyl)-4-fluorobenzyl)phthalazin-1(2H)-one]: 12.6 ± 0.9 nM; for `O=C(C1CC1)N1CCN(Cc2cc(Cc3n[nH]c(=O)c4ccccc34)ccc2F)CC1` [A21, 4-(3-((4-(Cyclopropanecarbonyl)piperazin-1-yl)methyl)-4-fluorobenzyl)phthalazin-1(2H)-one]: 8.4 ± 0.4 nM. On to `O=C(C1CCC(F)(F)CC1)N1CCN(Cc2cc(Cc3n[nH]c(=O)c4ccccc34)ccc2F)CC1` [A22, 4-(3-((4-(4,4-Difluorocyclohexane-1-carbonyl)piperazin-1-yl)methyl)-4-fluorobenzyl) phthalazin-1(2H)-one], for which the IC50 (Table 1, A series) was determined as 9.3 ± 0.3 nM. Take `O=C(C1CCCCC1)N1CCN(Cc2cc(Cc3n[nH]c(=O)c4ccccc34)ccc2F)CC1` [A23, 4-(3-((4-(Cyclohexanecarbonyl)piperazin-1-yl)methyl)-4-fluorobenzyl)phthalazin-1(2H)-one]: where the note is “Table 1, A series”, the IC50 worked out at 10.1 ± 0.6 nM. In the case of `CC(C)CNNC(=O)c1cc(Cc2n[nH]c(=O)c3ccccc23)ccc1F` [B4, 2-Fluoro-N′-isobutyl-5-((4-oxo-3,4-dihydrophthalazin-1-yl)methyl)benzohydrazide], under “Table 2, B and C series”, inhibition was half-maximal at 11.8 ± 1.3 nM (IC50). The compound `CCCCCNNC(=O)c1cc(Cc2n[nH]c(=O)c3ccccc23)ccc1F` [B5, 2-Fluoro-5-((4-oxo-3,4-dihydrophthalazin-1-yl)methyl)-N′-pentylbenzohydrazide] yielded an IC50 (Table 2, B and C series) of 5.2 ± 0.4 nM.

`CCCCCCNNC(=O)c1cc(Cc2n[nH]c(=O)c3ccccc23)ccc1F` [B6, 2-Fluoro-N′-hexyl-5-((4-oxo-3,4-dihydrophthalazin-1-yl)methyl)benzohydrazide]: the IC50 (Table 2, B and C series) is 9.4 ± 0.8 nM.
